Measured values taken from patent publication US10071974B2, “Morpholine and 1,4-oxazepane amides as somatostatin receptor subtype 4 (SSTR4) agonists” (Boehringer Ingelheim International GmbH, priority 2014, dated 2018).
pEC50: −log10 of the molar value.

Molecular target: human Somatostatin 4 Receptor (SSTR4) (Homo sapiens (Human), UniProt P31391)
Assay: cAMP assay with human somatostatin 4 receptor (hSSTR4 expressing H4 cells)
Assay type: cell-based
Conditions: read-out: SSTR4 agonism EC50

Sequence of human Somatostatin 4 Receptor (SSTR4) (P31391 whole entry): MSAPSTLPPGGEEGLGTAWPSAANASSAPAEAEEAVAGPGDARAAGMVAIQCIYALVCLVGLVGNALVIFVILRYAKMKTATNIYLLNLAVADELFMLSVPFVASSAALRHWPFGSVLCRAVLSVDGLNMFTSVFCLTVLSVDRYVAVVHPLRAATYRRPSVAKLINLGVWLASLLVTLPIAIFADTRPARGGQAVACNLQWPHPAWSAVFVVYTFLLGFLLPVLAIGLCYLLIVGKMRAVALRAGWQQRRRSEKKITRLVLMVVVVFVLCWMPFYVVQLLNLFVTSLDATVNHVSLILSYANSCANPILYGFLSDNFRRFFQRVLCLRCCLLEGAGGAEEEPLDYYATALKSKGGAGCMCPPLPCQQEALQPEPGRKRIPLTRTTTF

Row | Compound | pEC50
1 | Cc1cccn2c(C3(NC(=O)[C@@H]4CNCCO4)CCOC3)ncc12 (single isomer, unassigned) [Example 114] | 6.00
2 | CC(C)(NC(=O)C1CNCCOC1)c1ncc2c(Cl)cccn12 (single isomer, unassigned) [Example 119] | 7.13
3 | Cn1nc(C(C)(C)NC(=O)C2CCNCCO2)c2ccccc21 (single isomer, unassigned) [Example 28] | 7.32
4 | Cn1nc(C(C)(C)NC(=O)C2CNCCOC2)c2cccc(F)c21 (single isomer, unassigned) [Example 78] | 6.37
5 | Cc1cccn2c(C(C)(C)NC(=O)C3CNCCCO3)nc(C)c12 (single isomer, unassigned) [Example 149] | 6.00
6 | Cc1cccn2c(C(C)(C)NC(=O)C3CNCCCO3)nc(C)c12 (single isomer, unassigned) [Example 148] | 7.03
7 | Cc1cccn2c(C(C)(C)NC(=O)C3CNCCCO3)nc(C)c12 (racemic) [Example 147] | 6.73
8 | CC(C)(NC(=O)[C@H]1CNCCO1)c1cccc2ncccc12 [Example 8] | 6.59
9 | Cc1cccn2c(C(C)(C)NC(=O)C3CNCCOC3)ccc12 (racemic) [Example 135] | 8.07
10 | Cc1cccn2c(C(C)(NC(=O)[C@@H]3CNCCO3)C3CC3)ncc12 (single isomer, unassigned) [Example 111] | 6.54
11 | Cc1cccn2c(C(C)(CC(C)C)NC(=O)[C@@H]3CNCCO3)ncc12 (single isomer, unassigned) [Example 112] | 5.26
12 | Cc1cccn2c(C(C)(C)NC(=O)C3CNCCCO3)ncc12 (racemic) [Example 144] | 7.14
13 | CC(C)(NC(=O)C1CNCCCO1)c1noc2c(F)cccc12 (single isomer, unassigned) [Example 66] | 6.20
14 | Cc1cc2ccccc2c(C(C)(C)NC(=O)C2CCNCCO2)n1 (racemic) [Example 50] | 6.98
15 | Cc1cccn2c(C3(NC(=O)[C@@H]4CNCCO4)CCC3)ncc12 [Example 102] | 7.51
16 | Cc1cccc2c(C(C)(C)NC(=O)C3CNCCOC3)noc12 (single isomer, unassigned) [Example 56] | 6.13
17 | Cc1cccn2c(C(C)(C)NC(=O)C3CNCCCO3)ncc12 (single isomer, unassigned) [Example 146] | 6.00
18 | CC(C)(NC(=O)[C@@H]1CNCCO1)c1noc2c(F)cccc12 [Example 61] | 6.83
19 | Cc1nc(C(C)(C)NC(=O)C2CNCCOC2)n2cccc(F)c12 (single isomer, unassigned) [Example 121] | 7.95

Row | Compound | pEC50
20 | Cc1cccn2c(C3(NC(=O)[C@@H]4CNCCO4)CC3)ncc12 [Example 97] | 7.39
21 | Cc1cccc2c(C(C)(C)NC(=O)C3CNCCOC3)noc12 (racemic) [Example 54] | 8.09
22 | CC(C)(NC(=O)C1CNCCOC1)c1cccc2ccccc12 (centres unmarked) [Example 1] | 8.33
23 | Cc1cccc2c(C(C)(C)NC(=O)C3CNCCOC3)cnn12 (single isomer, unassigned) [Example 35] | 5.54
24 | Cc1cccc2c(C(C)(C)NC(=O)C3CNCCOC3)nn(C)c12 (racemic) [Example 84] | 8.35
25 | Cc1cccc2c(C(C)(C)NC(=O)C3CNCCOC3)nn(C)c12 (single isomer, unassigned) [Example 86] | 6.00
26 | C[C@H](NC(=O)[C@@H]1CNCCO1)c1cccc2ccccc12 [Example 10] | 7.29
27 | Cn1nc(C(C)(C)NC(=O)C2CNCCOC2)c2cccc(Cl)c21 (racemic) [Example 80] | 8.32
28 | CC(C)(COc1cnccc1C(F)(F)F)NC(=O)[C@@H]1CNCCO1 [Example 9] | 6.72
29 | CC(C)(NC(=O)[C@@H]1CNCCO1)c1n[nH]c2c(F)cccc12 [Example 87] | 7.87
30 | Cc1nnc(C(C)(C)NC(=O)[C@@H]2CNCCO2)c2ccccc12 [Example 36] | 7.60
31 | Cc1cc2ccccc2c(C(C)(C)NC(=O)C2CNCCCO2)n1 (single isomer, unassigned) [Example 49] | 6.01
32 | Cc1nc(C(C)(C)NC(=O)C2CNCCOC2)c2cccc(C)c2n1 (racemic) [Example 133] | 7.26
33 | Cc1cc2ccccc2c(C(C)(C)NC(=O)C2CNCCOC2)n1 (single isomer, unassigned) [Example 45] | 6.10
34 | CC(C)(NC(=O)C1CCNCCO1)c1noc2c(F)cccc12 (racemic) [Example 68] | 6.20
35 | Cc1cccn2c(C(C)(C)NC(=O)C3CCNCCO3)ncc12 (racemic) [Example 141] | 7.04
36 | Cc1cccn2c(C(C)(C)NC(=O)C3CNCCOC3)nc(C)c12 (single isomer, unassigned) [Example 129] | 8.28
37 | CC(C)(NC(=O)C1CNCCOC1)c1noc2c(F)cccc12 (single isomer, unassigned) [Example 63] | 7.38
38 | Cc1ncc(C(C)(C)NC(=O)[C@H]2CNCCO2)c2ccccc12 [Example 39] | 6.75

Row | Compound | pEC50
39 | Cn1nc(C(C)(C)NC(=O)C2CNCCCO2)c2ccccc21 (single isomer, unassigned) [Example 25] | 6.00
40 | CC(C)(NC(=O)C1CNCCOC1)c1n[nH]c2c(F)cccc12 (single isomer, unassigned) [Example 90] | 6.17
41 | CC(C)(NC(=O)[C@@H]1CNCCO1)C1CCCCC1 [Example 7] | 5.62
42 | Cc1ncc(C(C)(C)NC(=O)C2CNCCOC2)c2ccccc12 (racemic) [Example 40] | 9.10
43 | Cc1ccccc1OCC(C)(C)NC(=O)[C@@H]1CNCCO1 [Example 15] | 6.61
44 | COc1cccn2c(C(C)(C)NC(=O)C3CNCCOC3)ncc12 (single isomer, unassigned) [Example 124] | 6.00
45 | Cc1cccn2c(C(C)(C)NC(=O)C3CNCCOC3)nc(C)c12 (single isomer, unassigned) [Example 130] | 6.33
46 | Cc1cccn2c(C(C)(C)NC(=O)[C@@H]3CNCCO3)nc(C3CC3)c12 [Example 104] | 7.13
47 | CC(C)(COc1nccc2ccccc12)NC(=O)C1CNCCOC1 (racemic) [Example 16] | 6.41
48 | Cc1cccn2c(C(C)(C)NC(=O)C3CNCCOC3)ncc12 (single isomer, unassigned) [Example 118] | 7.06
49 | CC(C)(NC(=O)C1CNCCOC1)c1noc2c(F)cccc12 (single isomer, unassigned) [Example 64] | 5.73
50 | Cc1cccn2c(C(C)(C)NC(=O)[C@@H]3CNCCO3)nnc12 [Example 105] | 6.22
51 | CC(C)(COc1nccc2ccccc12)NC(=O)C1CNCCOC1 (single isomer, unassigned) [Example 17] | 4.52
52 | Cc1cccn2c(C(C)(CC(C)C)NC(=O)[C@@H]3CNCCO3)ncc12 (single isomer, unassigned) [Example 113] | 6.42
53 | Cn1nc(C(C)(C)NC(=O)C2CNCCOC2)c2ccccc21 (single isomer, unassigned) [Example 22] | 6.72
54 | Cc1cccn2c(C(C)(C)NC(=O)C3CNCCOC3)nc(C3CC3)c12 (single isomer, unassigned) [Example 139] | 7.65
55 | Cc1nc(C(C)(C)NC(=O)C2CNCCOC2)c2cccc(C)c2n1 (single isomer, unassigned) [Example 134] | 7.01
56 | C[C@H](NC(=O)C1CNCCOC1)c1cccc2ccccc12 (some centres unmarked) [Example 3] | 7.74
